Assay results as given in ChEMBL document CHEMBL4507291 (2021).

Experiments:
[1] = molecular target: Dual specificity mitogen-activated protein kinase kinase 5 (Homo sapiens) (UniProt Q13163)
[2] = molecular target: Serine/threonine-protein kinase NIM1 (Homo sapiens) (UniProt Q8IY84)
[3] = molecular target: Transient receptor potential cation channel subfamily M member 6 (Homo sapiens) (UniProt Q9BX84)
[4] = molecular target: Mitogen-activated protein kinase kinase kinase 1 (Homo sapiens) (UniProt Q13233)
[5] = molecular target: Platelet-derived growth factor receptor alpha (Homo sapiens) (UniProt P16234)
[6] = molecular target: Serine/threonine-protein kinase 25 (Homo sapiens) (UniProt O00506)
[7] = molecular target: Leukocyte tyrosine kinase receptor (Homo sapiens) (UniProt P29376)
[8] = molecular target: Tyrosine-protein kinase FRK (Homo sapiens) (UniProt P42685)
[9] = molecular target: Interferon-induced, double-stranded RNA-activated protein kinase (Homo sapiens) (UniProt P19525)
[10] = molecular target: T1, Mitogen-activated protein kinase kinase kinase 5 (Homo sapiens) (UniProt Q99683)
T1 sequence (whole entry): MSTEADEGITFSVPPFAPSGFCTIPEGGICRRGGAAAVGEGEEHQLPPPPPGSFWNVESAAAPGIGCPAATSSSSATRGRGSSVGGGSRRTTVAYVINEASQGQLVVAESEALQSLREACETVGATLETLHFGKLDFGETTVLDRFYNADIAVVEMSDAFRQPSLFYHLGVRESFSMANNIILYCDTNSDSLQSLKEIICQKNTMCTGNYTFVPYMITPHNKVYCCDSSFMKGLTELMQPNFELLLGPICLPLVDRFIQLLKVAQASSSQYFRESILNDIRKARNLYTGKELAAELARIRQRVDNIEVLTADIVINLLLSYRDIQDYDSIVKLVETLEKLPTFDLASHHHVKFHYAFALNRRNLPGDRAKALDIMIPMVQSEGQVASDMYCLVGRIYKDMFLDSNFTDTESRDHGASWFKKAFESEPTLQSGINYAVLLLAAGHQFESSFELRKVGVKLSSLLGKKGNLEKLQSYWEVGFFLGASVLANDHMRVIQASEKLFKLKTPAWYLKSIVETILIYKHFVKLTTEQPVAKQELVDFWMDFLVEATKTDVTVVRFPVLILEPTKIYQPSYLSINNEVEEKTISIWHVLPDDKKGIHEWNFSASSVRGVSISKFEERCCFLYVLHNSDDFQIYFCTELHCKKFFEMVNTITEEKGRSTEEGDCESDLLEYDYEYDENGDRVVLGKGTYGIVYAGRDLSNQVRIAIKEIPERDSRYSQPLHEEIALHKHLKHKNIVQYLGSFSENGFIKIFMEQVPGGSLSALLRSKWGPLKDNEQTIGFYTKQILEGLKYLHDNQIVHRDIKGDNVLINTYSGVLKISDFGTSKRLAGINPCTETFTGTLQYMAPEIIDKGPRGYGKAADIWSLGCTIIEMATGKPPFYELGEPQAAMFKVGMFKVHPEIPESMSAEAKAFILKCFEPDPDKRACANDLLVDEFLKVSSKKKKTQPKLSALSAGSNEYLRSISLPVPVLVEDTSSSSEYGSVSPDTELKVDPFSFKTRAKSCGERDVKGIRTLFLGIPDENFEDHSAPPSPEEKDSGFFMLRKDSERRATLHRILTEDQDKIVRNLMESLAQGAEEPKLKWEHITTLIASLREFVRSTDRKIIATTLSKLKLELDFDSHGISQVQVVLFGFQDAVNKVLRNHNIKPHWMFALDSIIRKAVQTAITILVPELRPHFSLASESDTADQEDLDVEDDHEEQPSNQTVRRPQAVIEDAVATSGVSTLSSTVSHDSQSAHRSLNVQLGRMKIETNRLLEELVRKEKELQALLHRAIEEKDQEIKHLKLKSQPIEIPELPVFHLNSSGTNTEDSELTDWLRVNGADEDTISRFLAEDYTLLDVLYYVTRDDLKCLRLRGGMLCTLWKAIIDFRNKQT

[11] = molecular target: Mitogen-activated protein kinase kinase kinase 15 (Homo sapiens) (UniProt Q6ZN16)
[12] = molecular target: Serine/threonine-protein kinase PAK 2 (Homo sapiens) (UniProt Q13177)
[13] = molecular target: Cyclin-dependent kinase-like 5 (Homo sapiens) (UniProt O76039)
[14] = molecular target: T2, MAP/microtubule affinity-regulating kinase 4 (Homo sapiens) (UniProt Q96L34)
T2 sequence (whole entry): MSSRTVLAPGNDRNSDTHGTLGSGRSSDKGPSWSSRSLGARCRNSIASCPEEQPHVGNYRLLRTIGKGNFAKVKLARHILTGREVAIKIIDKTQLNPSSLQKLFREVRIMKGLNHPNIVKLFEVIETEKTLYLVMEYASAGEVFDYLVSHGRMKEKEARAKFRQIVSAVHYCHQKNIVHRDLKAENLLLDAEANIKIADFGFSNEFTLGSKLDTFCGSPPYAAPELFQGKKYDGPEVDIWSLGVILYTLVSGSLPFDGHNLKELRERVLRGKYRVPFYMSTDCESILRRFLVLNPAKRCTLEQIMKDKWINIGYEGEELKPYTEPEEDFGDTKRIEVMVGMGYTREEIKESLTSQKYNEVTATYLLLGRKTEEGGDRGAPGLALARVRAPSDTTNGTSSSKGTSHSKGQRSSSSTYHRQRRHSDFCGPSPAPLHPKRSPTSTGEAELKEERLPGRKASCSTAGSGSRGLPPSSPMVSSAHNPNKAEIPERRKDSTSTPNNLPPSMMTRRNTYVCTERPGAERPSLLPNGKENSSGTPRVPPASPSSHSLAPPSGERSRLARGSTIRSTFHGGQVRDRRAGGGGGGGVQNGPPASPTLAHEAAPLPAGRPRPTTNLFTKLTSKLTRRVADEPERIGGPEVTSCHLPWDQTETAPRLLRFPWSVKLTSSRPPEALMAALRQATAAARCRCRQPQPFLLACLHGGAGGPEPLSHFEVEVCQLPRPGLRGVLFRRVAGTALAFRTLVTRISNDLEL

[15] = molecular target: Serine/threonine-protein kinase PLK4 (Homo sapiens) (UniProt O00444)
[16] = Compound concentration 1000.0 nM
[17] = Compound concentration 100.0 nM

Measured: residual activity

Platelet-derived growth factor receptor alpha (Homo sapiens), sequence (P16234 whole entry): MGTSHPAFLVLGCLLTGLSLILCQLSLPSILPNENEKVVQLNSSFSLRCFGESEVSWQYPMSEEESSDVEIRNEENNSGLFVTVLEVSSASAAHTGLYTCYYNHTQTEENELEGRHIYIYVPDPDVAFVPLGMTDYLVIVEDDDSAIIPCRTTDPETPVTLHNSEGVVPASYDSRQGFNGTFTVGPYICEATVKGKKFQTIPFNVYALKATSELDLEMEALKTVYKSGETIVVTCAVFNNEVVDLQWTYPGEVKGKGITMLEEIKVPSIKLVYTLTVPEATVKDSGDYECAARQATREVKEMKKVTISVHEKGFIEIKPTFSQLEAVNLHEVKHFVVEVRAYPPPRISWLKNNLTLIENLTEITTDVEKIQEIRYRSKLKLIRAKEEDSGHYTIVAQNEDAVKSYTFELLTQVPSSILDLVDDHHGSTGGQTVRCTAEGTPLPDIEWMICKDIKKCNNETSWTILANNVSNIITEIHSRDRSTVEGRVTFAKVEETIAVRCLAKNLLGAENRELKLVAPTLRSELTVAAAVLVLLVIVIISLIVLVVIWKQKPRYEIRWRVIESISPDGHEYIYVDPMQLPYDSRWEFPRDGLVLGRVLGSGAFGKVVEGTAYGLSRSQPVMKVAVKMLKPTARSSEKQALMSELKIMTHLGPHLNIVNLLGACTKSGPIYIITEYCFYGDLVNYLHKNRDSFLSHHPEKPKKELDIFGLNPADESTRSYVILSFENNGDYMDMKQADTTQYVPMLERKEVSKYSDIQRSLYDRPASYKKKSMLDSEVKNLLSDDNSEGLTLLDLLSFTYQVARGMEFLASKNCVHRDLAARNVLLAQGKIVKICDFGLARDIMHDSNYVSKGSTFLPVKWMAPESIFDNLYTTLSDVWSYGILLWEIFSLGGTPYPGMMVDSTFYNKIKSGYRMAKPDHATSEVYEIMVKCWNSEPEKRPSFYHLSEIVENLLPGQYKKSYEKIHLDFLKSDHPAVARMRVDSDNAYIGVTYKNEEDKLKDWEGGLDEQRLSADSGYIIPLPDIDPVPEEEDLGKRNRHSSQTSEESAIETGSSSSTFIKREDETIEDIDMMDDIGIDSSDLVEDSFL
Serine/threonine-protein kinase 25 (Homo sapiens), sequence (O00506 whole entry, looked up): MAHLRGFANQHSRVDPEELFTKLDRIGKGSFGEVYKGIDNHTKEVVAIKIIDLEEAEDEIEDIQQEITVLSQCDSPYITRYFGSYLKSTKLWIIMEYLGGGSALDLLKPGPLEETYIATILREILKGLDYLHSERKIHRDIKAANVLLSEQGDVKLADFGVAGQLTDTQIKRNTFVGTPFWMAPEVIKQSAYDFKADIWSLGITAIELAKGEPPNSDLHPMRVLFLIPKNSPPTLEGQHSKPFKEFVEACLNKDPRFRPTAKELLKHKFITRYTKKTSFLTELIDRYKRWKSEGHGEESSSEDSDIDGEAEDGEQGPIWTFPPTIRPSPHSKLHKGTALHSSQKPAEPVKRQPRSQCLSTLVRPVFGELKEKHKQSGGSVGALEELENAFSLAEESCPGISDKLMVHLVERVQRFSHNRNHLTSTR
Leukocyte tyrosine kinase receptor (Homo sapiens), sequence (P29376 whole entry): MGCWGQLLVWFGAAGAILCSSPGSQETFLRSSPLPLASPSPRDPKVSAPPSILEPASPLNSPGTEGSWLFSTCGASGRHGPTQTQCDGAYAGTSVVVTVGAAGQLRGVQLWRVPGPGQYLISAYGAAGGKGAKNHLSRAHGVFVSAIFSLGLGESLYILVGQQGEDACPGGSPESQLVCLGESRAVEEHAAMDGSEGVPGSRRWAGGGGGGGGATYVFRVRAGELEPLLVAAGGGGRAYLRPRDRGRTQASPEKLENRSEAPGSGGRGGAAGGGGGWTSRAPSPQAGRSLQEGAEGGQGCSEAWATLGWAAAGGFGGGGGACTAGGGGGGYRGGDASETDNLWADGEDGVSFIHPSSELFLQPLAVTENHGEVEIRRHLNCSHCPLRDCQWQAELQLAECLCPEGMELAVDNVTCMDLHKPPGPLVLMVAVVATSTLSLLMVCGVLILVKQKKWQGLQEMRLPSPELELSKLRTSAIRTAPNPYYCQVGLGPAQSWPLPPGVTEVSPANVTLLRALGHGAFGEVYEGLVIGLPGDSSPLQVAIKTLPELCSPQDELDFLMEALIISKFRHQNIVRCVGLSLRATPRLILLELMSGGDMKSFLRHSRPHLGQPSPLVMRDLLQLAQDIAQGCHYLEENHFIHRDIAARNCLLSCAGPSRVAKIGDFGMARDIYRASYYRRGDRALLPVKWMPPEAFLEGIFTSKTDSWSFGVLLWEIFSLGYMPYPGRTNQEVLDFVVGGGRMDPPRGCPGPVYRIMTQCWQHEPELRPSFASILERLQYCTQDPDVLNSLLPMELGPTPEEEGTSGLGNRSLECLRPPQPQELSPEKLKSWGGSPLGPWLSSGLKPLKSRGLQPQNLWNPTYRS
Mitogen-activated protein kinase kinase kinase 15 (Homo sapiens), sequence (Q6ZN16 whole entry): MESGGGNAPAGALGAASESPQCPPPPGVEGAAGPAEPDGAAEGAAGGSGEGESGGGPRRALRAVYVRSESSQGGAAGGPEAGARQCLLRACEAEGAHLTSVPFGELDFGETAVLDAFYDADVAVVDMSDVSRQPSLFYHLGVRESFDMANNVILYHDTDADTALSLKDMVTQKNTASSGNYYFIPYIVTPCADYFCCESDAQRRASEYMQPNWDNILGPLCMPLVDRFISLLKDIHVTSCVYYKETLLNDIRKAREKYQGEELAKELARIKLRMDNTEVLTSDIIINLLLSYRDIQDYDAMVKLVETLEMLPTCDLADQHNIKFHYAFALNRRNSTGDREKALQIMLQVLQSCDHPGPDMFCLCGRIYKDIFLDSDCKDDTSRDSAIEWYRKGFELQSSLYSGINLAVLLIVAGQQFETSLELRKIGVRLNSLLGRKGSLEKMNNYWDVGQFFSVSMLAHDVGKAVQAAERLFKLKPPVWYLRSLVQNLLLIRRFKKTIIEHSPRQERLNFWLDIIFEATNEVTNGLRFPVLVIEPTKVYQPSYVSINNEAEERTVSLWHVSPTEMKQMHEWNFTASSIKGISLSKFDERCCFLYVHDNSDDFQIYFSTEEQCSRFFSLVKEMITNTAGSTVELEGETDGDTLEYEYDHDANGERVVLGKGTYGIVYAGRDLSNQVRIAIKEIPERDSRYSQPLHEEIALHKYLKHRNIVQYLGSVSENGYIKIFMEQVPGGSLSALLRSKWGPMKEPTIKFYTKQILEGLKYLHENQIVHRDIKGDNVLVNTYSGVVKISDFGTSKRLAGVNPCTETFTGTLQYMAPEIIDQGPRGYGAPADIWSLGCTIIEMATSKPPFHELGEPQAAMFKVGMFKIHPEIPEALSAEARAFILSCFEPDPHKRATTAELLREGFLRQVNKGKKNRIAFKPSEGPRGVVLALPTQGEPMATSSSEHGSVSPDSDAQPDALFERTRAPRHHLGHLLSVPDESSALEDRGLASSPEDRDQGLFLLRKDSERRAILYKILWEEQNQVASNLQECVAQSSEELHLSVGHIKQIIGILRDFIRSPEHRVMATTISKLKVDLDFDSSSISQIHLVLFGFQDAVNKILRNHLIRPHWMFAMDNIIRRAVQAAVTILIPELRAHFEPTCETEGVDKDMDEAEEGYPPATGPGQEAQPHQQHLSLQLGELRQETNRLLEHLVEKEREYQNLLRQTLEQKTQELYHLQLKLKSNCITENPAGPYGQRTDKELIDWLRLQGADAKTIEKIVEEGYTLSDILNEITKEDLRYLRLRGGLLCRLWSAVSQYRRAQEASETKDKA
Serine/threonine-protein kinase NIM1 (Homo sapiens), sequence (Q8IY84 whole entry): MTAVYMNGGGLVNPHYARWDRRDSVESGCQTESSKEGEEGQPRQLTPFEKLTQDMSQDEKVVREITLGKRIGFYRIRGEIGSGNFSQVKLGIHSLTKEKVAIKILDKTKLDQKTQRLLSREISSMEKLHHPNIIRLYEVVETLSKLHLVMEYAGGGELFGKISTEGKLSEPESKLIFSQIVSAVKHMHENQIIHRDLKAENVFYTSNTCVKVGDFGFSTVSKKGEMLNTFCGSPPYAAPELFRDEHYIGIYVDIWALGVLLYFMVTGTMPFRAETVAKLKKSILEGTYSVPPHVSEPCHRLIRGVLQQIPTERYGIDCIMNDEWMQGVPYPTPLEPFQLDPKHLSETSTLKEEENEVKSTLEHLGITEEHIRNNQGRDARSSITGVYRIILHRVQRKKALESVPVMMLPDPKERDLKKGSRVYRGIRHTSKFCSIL
Interferon-induced, double-stranded RNA-activated protein kinase (Homo sapiens), sequence (P19525 whole entry): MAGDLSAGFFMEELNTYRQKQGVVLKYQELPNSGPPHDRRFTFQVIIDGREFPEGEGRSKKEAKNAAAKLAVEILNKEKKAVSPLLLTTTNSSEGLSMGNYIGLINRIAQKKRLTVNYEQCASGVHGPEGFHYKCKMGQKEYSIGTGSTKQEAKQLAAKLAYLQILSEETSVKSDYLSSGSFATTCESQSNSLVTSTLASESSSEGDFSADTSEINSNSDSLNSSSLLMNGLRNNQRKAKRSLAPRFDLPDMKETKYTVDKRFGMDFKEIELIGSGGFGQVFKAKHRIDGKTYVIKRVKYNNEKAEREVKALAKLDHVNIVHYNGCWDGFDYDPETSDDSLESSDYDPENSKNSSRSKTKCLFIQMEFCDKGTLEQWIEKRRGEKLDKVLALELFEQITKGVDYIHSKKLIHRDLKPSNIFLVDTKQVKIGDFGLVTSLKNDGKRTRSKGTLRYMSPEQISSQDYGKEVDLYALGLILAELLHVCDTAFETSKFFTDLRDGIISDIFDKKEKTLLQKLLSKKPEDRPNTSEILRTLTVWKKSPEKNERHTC

C[C@@H]1CN(c2cc(-c3nn(C)c4ccc(OC5(C)CC5)cc34)ncn2)C[C@H](C)O1 [MLi-2-NC]
inactive: [1]; [16] 93% | [2]; [16] 74% | [3]; [16] 85% | [4]; [16] 92% | [5]; [16] 83% | [6]; [16] 100% | [7]; [16] 100% | [8]; [16] 100% | [9]; [16] 100% | [10]; [16] 100% | [11]; [16] 80% | [12]; [16] 90% | [13]; [16] 64% | [14]; [16] 100% | [15]; [16] 65%

C[C@@H]1CN(c2cc(-c3n[nH]c4ccc(OC5(C)CC5)cc34)ncn2)C[C@H](C)O1 [MLi-2]
inactive: [1]; [17] 90% | [2]; [17] 72% | [3]; [17] 64% | [4]; [17] 63% | [5]; [17] 75% | [6]; [17] 100% | [7]; [17] 84% | [8]; [17] 100% | [9]; [17] 100% | [10]; [17] 88% | [11]; [17] 67% | [12]; [17] 95% | [13]; [17] 72% | [14]; [17] 100% | [15]; [17] 71%
